Source: patent US10919896B2, “Preparation and uses of pyrimidinone derivatives” (Cancer Research Technology Limited, priority 2016, dated 2021)
Structures can show the parent of a compound that is named as a salt.

Columns and labels:
[1] = system: Cdc7 (pS53MCM2 levels in SW48 cells); assay: Cdc7 Cell Pharmacodynamics Assay Method 3: pS53MCM2 levels in SW48 cells, 6 hours; type: cell-based; details: hydrochloride
Source text: This protocol describes a method to investigate the inhibition of Cdc7 activity by measuring pS53MCM2 levels in cells, after treatment with compounds.
• SW48 cells • RPMI 1640 (Sigma, R5886) • 10% FCS (Sera Laboratories International Ltd, EU000F Batch:108005) • 100× L-Glutamine (Invitrogen, 25030-024) • D-Glucose Solution (10%) (Sigma, G8644) • HEPES Buffer Solution (Sigma, 83264) • Sodium Pyruvate (Sigma, S8636) • PBS (Fisger, BP399-4) • Trypsin/EDTA (Invitrogen 25300-054) • 2% BSA in PBS • Cell Extraction Buffer (Invitrogen FNN0011) • Protease inhibitor cocktail (Sigma P-2714) • PMSF 0.3M stock in DMSO (Sigma P7626) • Antibody-rabbit pMCM2 Ser53 (Bethyl #A300-756A) • Antibody-goat MCM2 (Bethyl #A300-122A) • Antibody-goat Anti Rabbit IgG HRP (Perbio Science UK Ltd 31462) • SuperSignal ELISA Pico Chemiluminescent Substrate (Perbio Science UK Ltd 37070) Method • Plate 30,000 SW48 cells per well in standard TC treated 96 well plate in 100 μL complete RPMI 1640 medium. • Allow cells to settle overnight in incubator set at 37° C. and 5% CO2. • Cell treatment: prepare a 384 well plate containing 80 μl PBS/well. The PBS should be at room temperature—to be referred to as intermediate plate. Transfer 2 μL of compound from mother plate to intermediate (daughter plate) 1:40 dilution, then 5 μL intermediate to cell (daughter) plate. • Once all cells are treated place the cells back to the incubator and incubate for 6 hours. • Dilute the capture antibody (total MCM2#A300-122A) 1 in 250 in the required volume of PBS (5 mL per assay plate, plus 5 mL for dead volume) and add 50 μL to each well of a Hybond plate. Seal the plate and incubate at room temperature for a minimum of 2 hours. • Defrost aliquot of Invitrogen Cell Extraction Buffer (FNN0011) on ice and supplement with appropriate volume of both Sigma protease inhibitor cocktail (P-2714) and PMSF (final conc 1 mM from a 1 M stock in DMSO). • After the 6 hour cell treatment time, tap out the media from the assay plates and place them in the −80° C. freezer for at least 5 minutes. • Remove plates from freezer and add 20 μL of ice cold complete lysis buffer, with the multidrop. Incubate cells for 30 minutes at 4° C. • Add 80 μL per well 2% BSA. • Flick out the remaining liquid from the capture plate and transfer 80 μL from the lysis plate to the same wells in the capture/ELISA plate, using the Biomek. Cover with plate seal and incubate plates overnight at 4° C. • Wash plates with PBS, remove any residual remaining liquid and add 50 μL per well of pMCM2 Ser53 antibody (#A300-756A) diluted 1 in 100 in 2% BSA. Cover plate and incubate at room temperature for 2 hours with gentle shaking. • Wash plates with PBS, remove any residual remaining liquid and Incubate with 50 μL goat anti rabbit antibody (1 in 800 dilution in 2% BSA), for 1 hour at room temperature. • Wash plates with PBS, remove any residual remaining liquid and add 50 μL mixed SuperSignal Pico substrate. • Incubate each plate for 5 minutes at room temperature shielding the plates from direct light (with a cover plate). Read plates with the luminescent detection.

[2] = biological target: T1, Cdc7/ASK (Homo sapiens, UniProt O00311); assay: Cdc7 Biochemical Assay Method 4: off-chip mobility shift assay (Carna Biosciences); design: purchased Carna Biosciences; host or cells: baculovirus expression system; details: off-chip MSA, MCM2 peptide, 5 hours; read-out: Biochemical Method 4 (pIC50) (converted)
Procedure: This protocol describes a method for assaying Cdc7/ASK for activity. The assay is an off-chip mobility shift assay (MSA) run at Carna Biosciences.
1. Preparation of Test Compound Solution.
The test compound was dissolved in and diluted with dimethylsulfoxide (DMSO) to achieve 100-fold higher concentration which was specified by the sponsor. Then the solution was further 25-fold diluted with assay buffer to make the final test compound solution. Reference compounds for assay control were prepared similarly.
Cdc7/ASK: Full-length human Cdc7 [1-574(end) amino acids of accession number NP_003494.1] was co-expressed as N-terminal GST-fusion protein (92 kDa) with Dbf4(ASK) [1-674(end) amino acids of accession number NP_006707.1] using baculovirus expression system. GST-Cdc7 was purified by using glutathione sepharose chromatography.
3. Assay Reagents and Procedures
Off-chip Mobility Shift Assay (MSA)
1) The […] of ×2 kinase solution were prepared with assay buffer (20 mM HEPES, 0.01% Triton X-100, 1 mM DTT, pH 7.5) and mixed and incubated in a well of polypropylene 384 well microplate for 5 hours at room temperature. 2) […] of Termination Buffer (QuickScout Screening Assist MSA; Carna Biosciences) was added to the well. 3) The reaction mixture was applied to LabChip system (Perkin Elmer), and the product and substrate peptide peaks were separated and quantitated. 4) The kinase reaction was evaluated by the product ratio calculated from peak heights of product (P) and substrate (S) peptides (P/(P+S)).
Reaction time is 5 hours.
The readout value of reaction control (complete reaction mixture) was set as a 0% inhibition, and the readout value of background (Enzyme(−)) was set as a 100% inhibition, then the percent inhibition of each test solution was calculated.
IC50 value was calculated from concentration vs. % Inhibition curves by fitting to a four parameter logistic curve.

[3] = biological target: Cdc7/Dbf4 (Homo sapiens, UniProt O00311); assay: Cdc7 Biochemical Assay Method 3: Cdc7/Dbf4 Enzyme TR-FRET Assay measuring pS40MCM2; details: 1 μM ATP, read-out: Biochemical Method 3 (pIC50) (converted)
In short: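 2.5 nM Cdc7/Dbf4 incubated with 100 nM biotinylated MCM2-derived peptide and 1 μM ATP, 120 minutes at 25° C. Phospho-S40 detected by TR-FRET using anti-pS40 Mcm2 antibody, terbium anti-rabbit secondary and streptavidin-Alexa Fluor488.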

[4] = system: Cdc7 (pS40MCM2 levels in HCT116 cells); assay: Cdc7 Cell Pharmacodynamics Assay Method 2A: pS40MCM2 levels in HCT116 cells, 6 hours; type: cell-based; details: Homo sapiens, HCT-116, read-out: Biomarker Method 2A (pEC50) (converted)
Source text: This protocol describes a method to investigate the inhibition of Cdc7 activity by measuring pS40MCM2 levels in cells, after treatment with compounds.
• HCT116 cells (ATCC, #CCL-247) • McCoys 5A with L-glutamine (Cellgro, #10-050-CV) • 10% FCS (Cellgro, #35-010-CV) • D-PBS without CaCl2 and MgCl2 (Cellgro, #21-031-CV) • Trypsin/EDTA (Cellgro, #25-052-CL) • BSA (Calbiochem, 126593) • Cell Extraction Buffer (Invitrogen FNN0011) • Protease inhibitor cocktail (Sigma P-2714) • PMSF 0.3M stock in DMSO (Sigma P7626) • Antibody-rabbit pMCM2 Ser40 (Abcam, AB133243) • Antibody-goat MCM2 (Bethyl #A300-122A) • Antibody-goat Anti Rabbit IgG HRP (Thermo, 31462) • SuperSignal ELISA Pico Chemiluminescent Substrate (Perbio Science UK Ltd 37069) • 10×PBS (Growcells, MRGF-6236) • Triton X100 (Sigma, P-T8787) • DMSO (Fisher, D128-1) • 2-Propanol (J. T. Baker, 9095-03) Method • Seed 1×10^6 HCT116 cells into each of two 175 cm^2 flask containing 30 mL Cell Growth Media and incubate at 37° C., 5% CO2 for 3 days. • Harvest the cells from one T175 cm^2 flask and count. • Dilute with Cell Growth Media to a cell density of 2×10^5. Dispense 100 μL to each well (20,000 HCT116 cells/well) of TC treated 96-well plate(s). • Allow cells to settle overnight in incubator set at 37° C. and 5% CO2. • Cell treatment: Transfer 0.25 μL/well from the compound plate to the wells of the cell plate(s). This is a 1:400 dilution of compound in the assay. • Once all cells are treated place the cells back to the incubator and incubate for either 6 hours (Method 2A) or 18 hours (Method 2B). • Dilute the capture antibody (total MCM2#A300-122A) 1 in 250 in the required volume of PBS (5 mL per assay plate, plus 5 mL for dead volume) and add 50 μL to each well of a Hybond plate except wells A12 & B12. Seal the plate and incubate at room temperature for a minimum of 2 hours. • Defrost aliquot of Invitrogen Cell Extraction Buffer (FNN0011) on ice and supplement with appropriate volume of both Sigma protease inhibitor cocktail (P-2714) and PMSF (final conc 1 mM from a 1 M stock in DMSO). • After the 6 hour or 18 hour cell treatment time, tap out the media from the assay plates and place them in the −70° C. freezer for at least 5 minutes. • Flick out the remaining liquid in the previously prepared capture Ab plate(s) and add 200 μL 2% BSA per well. Incubate for 1 hour at room temperature. • Remove plates from freezer and add 20 μL of ice cold complete lysis buffer. Incubate cells for 30 minutes at 4° C. • Add 30 μL per well 2% BSA • At the end of the 1 hour incubation, wash the Capture/ELISA plate(s) with Wash Buffer on the BioTek plate washer. • Transfer 40 μL per well of the lysis plate(s) to the same wells in the Capture/ELISA plate. Incubate cells overnight at 4° C. • At the end of the overnight incubation, wash the ELISA plate(s) with Wash Buffer on BioTek plate washer. • Prepare Detection Antibody Buffer and dispense 50 μL to all wells of ELISA plate(s) except wells G1 & H1. Cover plate and incubate at room temperature for 2 hours with gentle shaking. • At the end of the 2 hour incubation, wash the ELISA plate(s) with Wash Buffer on the BioTek plate washer. • Prepare the Conjugated Antibody Buffer and dispense 50 μL to all wells of ELISA plate(s). • Cover the plate and incubate at room temperature for 1 hour with gentle shaking. • At the end of the 1 hour incubation, wash the ELISA plate(s) with Wash Buffer on the BioTek plate washer. • Prepare Substrate Buffer and dispense 50 μL to all wells of ELISA plate(s). • Incubate for a minimum of 10 minutes and read plates on the EnVision 2100 Multilabel Reader (Mirror: Luminescence (404) & Luminescence 700 (212); Measurement Height: 6.5 mm; Measurement Time: 0.2 s). Method 3

[5] = biological target: T1, Cdc7/ASK; assay: Cdc7 Biochemical Assay Method 2: 384 well mobility shift assay (EZ Reader II), MCM2 peptide substrate; design: purchased; details: 12.5 μM ATP, read-out: Biochemical Method 2 (pIC50) (converted)
Procedure: This protocol describes a method for assaying Cdc7/ASK for activity. The assay is a 384 well mobility shift assay (MSA) run on the EZ Reader II microfluidics plate reader (Caliper LifeSciences), utilising a peptide substrate based on the MCM2 sequence. The assay technology is based on the change in mobility between the peptide substrate and the phosphorylated product. A 10 nL volume of the reaction mixture is sipped onto the microfluidic chip where the substrate and product are separated by electrophoresis and detected via laser-induced fluorescence (488 nm LED). The reaction can be monitored in real-time for kinetic experiments or as an end-point for IC50 determinations. The % conversion of substrate is calculated from peak heights of product (P) and substrate (S) peptides (% conversion=P/(P+S)*100).
• 10× Assay Buffer: 200 mM HEPES pH 8, 100 mM MgCl2, 0.1% v/v Triton X-100 and 15 mM DTT. Prepare fresh buffer from 1 M HEPES pH 8, 1 M MgCl2, 1 M DTT and 10% Triton x-100 stocks for each experiment. • Cdc7/ASK is purchased from commercial suppliers and used in the assay at a final assay concentration of 0.847 ng/μL or 9.2 nM. • MCM2 peptide is purchased from commercial suppliers and used in the assay at a final assay concentration of 2.5 μM. • ATP used in the assay at a final assay concentration of 12.5 μM. Methods • 1. Prepare intermediate (daughter) compound plate by transferring 2 μL of compound from the mother plate to 18 μL of 33.3% DMSO in a clear polypropylene plate. • 2. Dry-spot 1 μL of compound from the intermediate compound plate to empty assay plate. • 3. Add 5 μL of 1.694 ng/μL CDC7/ASK working solution to ‘test’ and ‘control’ wells or […] of 2× Assay Buffer to ‘blank’ wells. • 4. Add 4 μL 2.5 μM peptide/12.5 μM ATP working solution to all wells. • 5. Incubate at 37° C. for 1 hour then remove from the incubator and leave for a further 1 hour at room temperature. • 6. Place plate into an EZReader II to read.
Percentage inhibition values were calculated from % of substrate conversion values, using the no compound (DMSO) and no enzyme control values as 0% and 100% inhibition, respectively. IC50 determination was performed with ExcelFit software (IDBS) using curve fit 205. Z′ factors were determined for each plate tested and were all above 0.5.

T1 sequence (O00311 whole entry): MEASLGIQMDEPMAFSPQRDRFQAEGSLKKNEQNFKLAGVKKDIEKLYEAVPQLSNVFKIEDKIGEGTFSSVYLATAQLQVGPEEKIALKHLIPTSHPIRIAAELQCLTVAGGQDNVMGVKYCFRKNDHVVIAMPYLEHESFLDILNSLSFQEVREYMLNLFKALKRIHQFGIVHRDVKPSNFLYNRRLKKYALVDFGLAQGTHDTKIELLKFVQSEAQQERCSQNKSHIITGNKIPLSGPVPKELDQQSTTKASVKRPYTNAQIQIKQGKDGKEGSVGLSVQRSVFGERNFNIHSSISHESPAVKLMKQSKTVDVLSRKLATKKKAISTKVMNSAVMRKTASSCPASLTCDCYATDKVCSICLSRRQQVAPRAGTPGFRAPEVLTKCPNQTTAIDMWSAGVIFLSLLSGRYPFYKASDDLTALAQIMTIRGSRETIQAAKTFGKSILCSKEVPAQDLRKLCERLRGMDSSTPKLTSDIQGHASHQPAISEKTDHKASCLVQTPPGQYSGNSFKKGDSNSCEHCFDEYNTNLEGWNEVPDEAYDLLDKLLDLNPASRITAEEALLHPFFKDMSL
T1 sequence (Q9UBU7 whole entry partner): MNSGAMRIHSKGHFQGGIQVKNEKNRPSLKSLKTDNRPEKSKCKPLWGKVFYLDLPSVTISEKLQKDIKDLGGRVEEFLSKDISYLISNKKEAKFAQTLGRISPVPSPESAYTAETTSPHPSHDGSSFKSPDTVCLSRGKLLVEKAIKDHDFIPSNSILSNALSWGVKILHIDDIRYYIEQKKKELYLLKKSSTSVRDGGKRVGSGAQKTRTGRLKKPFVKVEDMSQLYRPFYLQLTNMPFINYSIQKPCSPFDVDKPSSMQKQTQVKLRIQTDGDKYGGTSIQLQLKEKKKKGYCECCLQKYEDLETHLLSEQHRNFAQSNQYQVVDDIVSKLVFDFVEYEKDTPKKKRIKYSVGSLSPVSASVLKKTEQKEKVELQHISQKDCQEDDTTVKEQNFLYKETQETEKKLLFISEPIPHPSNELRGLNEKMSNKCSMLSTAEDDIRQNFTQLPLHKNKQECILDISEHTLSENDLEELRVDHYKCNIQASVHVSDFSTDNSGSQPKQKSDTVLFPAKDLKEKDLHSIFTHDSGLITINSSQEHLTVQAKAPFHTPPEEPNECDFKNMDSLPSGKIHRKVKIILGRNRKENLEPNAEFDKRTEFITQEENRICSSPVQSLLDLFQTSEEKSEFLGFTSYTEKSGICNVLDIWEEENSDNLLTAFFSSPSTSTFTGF
Sequence of Cdc7/Dbf4 (O00311 whole entry): as the sequence (O00311 whole entry) above
Sequence of Cdc7/Dbf4 (Q9UBU7 whole entry partner): as the sequence (Q9UBU7 whole entry partner) above

Row | SMILES | Biomarker Method 3 (pEC50) [1] | IC50 [2] | IC50 [3] | EC50 [4] | IC50 [5]
1 | O=c1[nH]c(-c2ccnc(F)c2)nc(N2CCNCC(F)C2)c1Cl (single isomer, unassigned) [Compound 379, 5-chloro-4-(6-fluoro-1,4-diazepan-1-yl)-2-(2-fluoro-4-pyridyl)-1H-pyrimidin-6-one hydrochloride] | 5.88 | 7.94 nM | – | – | –
2 | O=c1[nH]c(-c2ccnc(F)c2)nc(N2CCNCC(F)C2)c1Cl (single isomer, unassigned) [Compound 380, 5-chloro-4-(6-fluoro-1,4-diazepan-1-yl)-2-(2-fluoro-4-pyridyl)-1H-pyrimidin-6-one hydrochloride] | 6.70 | 3.98 nM | – | – | –
3 | CC(C)(F)C1CN(c2nc(-c3ccnc(F)c3)[nH]c(=O)c2Cl)CCN1 (single isomer, unassigned) [Compound 381, 5-chloro-4-[3-(1-fluoro-1-methyl-ethyl)piperazin-1-yl]-2-(2-fluoro-4-pyridyl)-1H-pyrimidin-6-one hydrochloride] | 5.32 | 70.8 nM | – | – | –
4 | N[C@H]1CCN(c2nc(-c3ccnc(F)c3)[nH]c(=O)c2Cl)C1 [Compound 320] | – | – | 0.794 nM | 316 nM | 3.72 nM
